Source: ChEMBL document CHEMBL4680289, “10-(4-Phenylpiperazine-1-carbonyl)acridin-9(10H)-ones and related compounds: Synthesis, antiproliferative activity and inhibition of tubulin polymerization” (Bioorg Med Chem Lett, 2021)
Activity calls are given as the source filed them. The rule behind the calls is not given here.

Experiments:
[1] = system: K562; assay: Induction of apoptosis in human K562 cells assessed as late apoptotic cells at 0.1 micromol/L measured after 48 hrs by Annexin V-FITC/7-AAD staining based flow cytometric analysis (reference value: 2.49 %); format: functional; conditions: dose 0.1 µmol/L, at 0.1 µM
[2] = system: K562; assay: Induction of apoptosis in human K562 cells assessed as necrotic cells at 0.1 uM measured after 24 hrs by Annexin V-FITC/7-AAD staining based flow cytometric analysis relative to control; format: functional
[3] = system: K562; assay: Induction of apoptosis in human K562 cells measured after 48 hrs by Annexin V-FITC/7-AAD staining based flow cytometric analysis; format: functional, cell-based; conditions: dose 0.01-3 µmol/L
[4] = system: K562; assay: Induction of apoptosis in human K562 cells assessed as necrotic cells at 0.03 micromol/L measured after 48 hrs by Annexin V-FITC/7-AAD staining based flow cytometric analysis (reference value: 0.46 %); format: functional; conditions: dose 0.03 µmol/L, at 0.03 µM
[5] = system: K562; assay: Induction of apoptosis in human K562 cells assessed as viable cells at 0.01 micromol/L measured after 48 hrs by Annexin V-FITC/7-AAD staining based flow cytometric analysis (reference value: 92.85 %); format: functional; conditions: K562, 48 h, dose 0.01 µmol/L, read-out: Activity
[6] = system: K562; assay: Induction of apoptosis in human K562 cells assessed as viable cells at 0.1 uM measured after 6 hrs by Annexin V-FITC/7-AAD staining based flow cytometric analysis relative to control; format: functional; conditions: read-out: Activity
[7] = system: K562; assay: Induction of apoptosis in human K562 cells assessed as viable cells at 0.1 uM measured after 72 hrs by Annexin V-FITC/7-AAD staining based flow cytometric analysis relative to control; format: functional; conditions: read-out: Activity
[8] = system: K562; assay: Induction of apoptosis in human K562 cells assessed as early apoptotic cells at 0.1 micromol/L measured after 48 hrs by Annexin V-FITC/7-AAD staining based flow cytometric analysis (reference value: 4.2 %); format: functional; conditions: dose 0.1 µmol/L, at 0.1 µM
[9] = system: K562; assay: Induction of apoptosis in human K562 cells assessed as necrotic cells at 0.1 uM measured after 12 hrs by Annexin V-FITC/7-AAD staining based flow cytometric analysis relative to control; format: functional
[10] = system: K562; assay: Induction of apoptosis in human K562 cells assessed as early apoptotic cells at 0.1 uM measured after 6 hrs by Annexin V-FITC/7-AAD staining based flow cytometric analysis relative to control; format: functional
[11] = system: K562; assay: Antiproliferative activity against human K562 cells assessed as cell growth inhibition measured after 48 hrs by MTT assay; format: functional, cell-based; conditions: K562, 48 h
[12] = system: K562; assay: Induction of apoptosis in human K562 cells assessed as early apoptotic cells at 0.1 uM measured after 24 hrs by Annexin V-FITC/7-AAD staining based flow cytometric analysis relative to control; format: functional
[13] = system: K562; assay: Induction of apoptosis in human K562 cells assessed as late apoptotic cells at 0.1 uM measured after 6 hrs by Annexin V-FITC/7-AAD staining based flow cytometric analysis relative to control; format: functional
[14] = system: K562; assay: Cell cycle arrest in human K562 cells assessed as increase in cell accumulation at G2/M phase at < 30 nM measured after 18 hrs by propidium iodide/RNase FACSCalibur staining based flow cytometry; format: functional; conditions: dose nM <30, time 18.0 hrs

IC50 [11]: 0.013 µM
SMILES: COc1cc(OC)cc(N2CCN(C(=O)n3c4ccccc4c(=O)c4ccccc43)CC2)c1
Activity [1]: 22.22%
Activity [2]: 0.23%
Activity [3]: Dose-dependent effect
Activity [4]: 0.53%
viability at 0.01 µM [5]: 88.6%
viability at 0.1 µM [6]: 91.6%
viability at 0.1 µM [7]: 18.2%
Activity [8]: 26.08%
Activity [9]: 0.29%
Activity [10]: 4.84%
Activity [12]: 26.44%
Activity [13]: 3.3%
Activity [14]: Active
